# Laboratory results: patent US20130190370A1, “Novel Tetrahydronaphalene Antagonists to the Thromboxane A2 (TP) Receptor” (The Trustees of the University of Pennsylvania, priority 2010, published 2013)
# Where two headings read alike, the source gives them in different places.
# Tests used:
# Tg2576 mice = details: cited from earlier work
# [1] = S18886 brain and plasma levels after administration to mice in drinking water; type: in vivo
# Method: Brain and plasma drug levels of S18886 were measured after administration to mice in drinking water, as previously described (Shineman, et al., 2008, J. Neurosci 28:4785-4794). Mice have 20-30 separate drinking bouts over the course of the day (Gannon, et al., 1992, Physiol Behav. 51:515-521), albeit with much greater water consumption during the night. […] In fact, extended exposure to excessively high blood levels of a TP receptor antagonist could increase the risk of bleeding complications due to compromise of platelet function, as it is known that TP receptor knockout mice and TxA2 synthase-deficient mice have prolonged clotting times (Thomas, et al., 1998, J Clin Invest 102:1994-2001; Yu, et al., 2004, Blood 104:135-142). Furthermore, inactivating mutations in the TP receptor have been linked to a dominantly inherited bleeding disorder in humans (Hirata, et al., 1994, J Clin Invest 94:1662-1667).
# [2] = Unbound fractions in plasma and brain homogenates by equilibrium dialysis; type: in vitro ADME; details: for fraction unbound: equilibrium dialysis
# Text: Without wishing to be bound by any particular theory, it is believed that it is possible (although uncommon) for a BBB-permeable compound to have a very low B/P ratio if the fraction of free, unbound drug is much greater in the […]. More specifically, a drug that is freely diffusible across the BBB will at equilibrium have a free drug B/P ratio (B/Pfree)=1, where B/Pfree=B/P×fu(brain))/fu(plasma) (Maurer, et al., 2005, Drug Metab Dispos. 33:175-181; Kalvasset al., 2007, Drug Metab Dispos. 35:660-666) and fti represents unbound drug fractions. […] To ensure that the low B/P ratios obtained with the TP antagonists of Table 1 were truly reflective of poor BBB permeability, the unbound fractions in plasma and brain homogenates were measured using established equilibrium dialysis methods (Maurer, et al., 2005, Drug Metab Dispos. 33:175-181; Kalvasset al., 2007, Drug Metab Dispos. 35:660-666; Friden, et al., 2007, Drug Metab Dispos. 35:1711-1719). […] This is further illustrated by comparing the calculated B/Pfree ratios (Table 1), which are <<1. Because the existing repertoire of TP receptor antagonists share common structural features, including free carboxylate moieties, it is highly unlikely that any of these existing compounds would be sufficiently brain-penetrant to be potential AD therapeutics.
# mouse TP receptor = biological target: T1, mouse TP receptor (Mus musculus, UniProt P30987); assay: Radioligand binding assay (3H-SQ29,548), mouse TP receptor; details: read-out: Kd / affinity at the mouse TP receptor
# T1 construct: expressed in transfected cells
# T1 sequence (P30987 1-341): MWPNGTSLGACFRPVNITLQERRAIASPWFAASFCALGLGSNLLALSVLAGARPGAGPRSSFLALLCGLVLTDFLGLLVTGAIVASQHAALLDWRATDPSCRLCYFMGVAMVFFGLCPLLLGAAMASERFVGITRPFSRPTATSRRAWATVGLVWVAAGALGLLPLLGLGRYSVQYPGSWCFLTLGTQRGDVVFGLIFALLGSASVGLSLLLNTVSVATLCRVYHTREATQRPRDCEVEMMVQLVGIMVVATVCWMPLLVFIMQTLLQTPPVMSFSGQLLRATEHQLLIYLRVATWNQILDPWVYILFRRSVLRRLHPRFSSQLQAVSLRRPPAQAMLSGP
# Method: QBI-HEK 293A cells expressing human or mouse TxA2 (TP) receptor were grown as described previously and harvested in phosphate-buffered saline with 1 mM EDTA. The cell pellet was homogenized in a glass homogenizer in 20 mM Hepes, 1 mM EGTA, 0.5 mM DTT with protease inhibitor cocktail. The homogenate was initially centrifuged at 1000×g for 10 minutes at 8° C. to remove cell debris. The homogenate was then centrifuged in a Beckman L8-70M ultracentrifuge (Beckman-Coulter, Brea, Calif., USA) at 21,000 rpm for 30 minutes at 4° C., and the pellet was resuspended in 20 mM Hepes, 1 mM EGTA, 100 mM NaCl. Membrane preparations were normalized to protein level as determined with a BCA assay (ThermoFisher, Rockland, Ill.) and stored at −80° C.
# Test antagonists were incubated at 10 different concentrations with 25 μg membrane and 25 nM ^3H-SQ29,548 (PerkinElmer, Waltham, Mass., USA) in 50 mM Tris, 4 mM CaCl2, 0.1% ascorbic acid pH 7.5 for 2 hours at 25° C. in 96-well polystyrene plates. Separation of bound from free radioligand was accomplished by rapid vacuum filtration onto 96-well GF/B filter plates (PerkinElmer, Waltham, Mass., USA). Filters were washed 8 times in 50 mM Tris, pH 6.9 and allowed to dry for 16 hours, Plates were sealed and filters dissolved in 50 μL Betaplate Scintillation fluid (PerkinElmer, Waltham, Mass., USA) and read on a scintillation counter. Data are presented as percent total binding as calculated by a minimum of 3 wells containing membrane and ^3H-SQ29,548 without antagonist.
# Equilibrium dissociation constants (Kd), IC50, and Schild regression analyses was performed with GraphPad Prism software (GraphPad Software Inc., La Jolla, Calif., USA).
# To facilitate the characterization of the new compounds, cell-based TP receptor functional assays were optimized. HEK293 clones have been produced that stably express the human (hTP) or mouse (mTP) TP receptor (a isoform), and treatment of these clones with I-BOP ([1S-[1α,2α(Z),3β(1E,3S*),4α]]-7-[3-[3-hydroxy-4-(4-iodophenoxy)-1-butenyl]-7-oxabicyclo[2.2.1]hept-2-yl]-5-heptenoic acid) results in increased production of inositol triphosphate (IP3) (Knezevic, et al., 1993, Blood 82:A156; Shenker, et al., 1991, J Biol Chem 266:9309-9313; Huang, et al., 2004, Cell Signal 16:521-533) which can be quantified by measuring the breakdown product, inositol monophosphates (IP1), using a commercial time-resolved fluorescence assay. […] A radioligand binding assay was also developed to allow for the determination of binding affinities of compounds at the hTP and mTP receptors.
smiles,measurement,setting,value
Cc1ccc2c(c1CCC(=O)O)CC[C@@H](NS(=O)(=O)c1ccc(Cl)cc1)C2 [Compound S18886],Aβ levels,"Tg2576 mice; Tg2576 mice, drinking water",reduced Aβ levels
same,plaque load,"Tg2576 mice; long-term treatment, relative to untreated mice",significant diminution of plaque load
same,free drug in plasma relative to brain,[1]; drinking water dosing,> 10 ×
same,calculated free drug concentration in brain as % of Kd at mouse TP receptor,"[1]; drinking water dosing, daylight phase",~30%
same,concentration at 1 day,"[1]; mouse, brain, oral, dosing by drinking water, day 1, daylight phase, read-out: Free S18886 brain level",0.093 nM
same,concentration at 2 day,"[1]; mouse, brain, oral, dosing by drinking water, day 2, daylight phase, read-out: Free S18886 brain level",0.117 nM
same,fraction unbound,"[2]; brain homogenate, read-out: fu(brain) (fraction unbound)",0.044
same,plasma/brain unbound fraction ratio,"[2]; plasma and brain homogenate, ratio of unbound fractions plasma/brain, read-out: fu(pl)/fu(br)",0.59
same,fraction unbound,"[2]; plasma, read-out: fu(plasma) (fraction unbound)",0.026
same,Kd,mouse TP receptor,0.36 nM
